Laboratory results: US10561692B2, “Allergy-inhibiting sea grape extract, its preparation method and application thereof” (Teh Fong Min International Co., Ltd., priority 2016, dated 2020)

Test system: degranulation of cells to release β-hexosaminidase
Experiment: β-hexosaminidase release from cells, determined by ELISA (allergy triggering / allergy induction)
Assay type: cell-based
Details: Ctr results of FIG. 1, stimulant alone
Experimental: […] Comparisons of the sea grape extract (I) alone group, refined sea grape (I) alone group and the control group.
Calcium ionophore A23187 stimulates degranulation of cells to release the allergic mediator, β-hexosaminidase, the concentration of β-hexosaminidase is determined by enzyme-linked immunosorbent assay (ELISA).

Structure (SMILES): CNc1ccc2oc(C[C@H]3O[C@@]4(CC[C@H]3C)O[C@H]([C@H](C)C(=O)c3ccc[nH]3)[C@H](C)C[C@H]4C)nc2c1C(=O)O [Calcium ionophore A23187]
- release of β-hexosaminidase: induces release
